Source: patent US20040166062A1, “Ablation therapy using chemical shift magnetic resonance imaging” (priority 2003, published 2004)

Columns and labels:
[1] = tested on: prostate tumor
Text: (§1) An MR-compatible needle is advanced into the lesions to introduce the ablation agent.

[2] = tested on: breast tumor
Text: as §1

[3] = tested on: renal tumor
Text: as §1

[4] = tested on: lung tumor
Text: as §1

[5] = tested on: unresectable hepatocellular carcinoma
Description: After obtaining standard T1 and T2-weighted imaging, an MR-compatible 10 cm long, 22-gauge needle was advanced into the lesions. Baseline imaging was performed using a water-suppressed two-dimensional spoiled gradient-echo pulse sequence. […] The scanning parameters were: 30 degree flip angle, TE=4.2 msec, TR=34 msec, 34-38 cm field-of-view, ±16 kHz receiver bandwidth, 256×128 matrix, and 7 mm slice thickness.

[6] = tested on: calf liver; conditions: calf liver ex vivo, 8 cc glacial acetic acid injected by hand over 2 minutes
Text: An MRI-compatible, 10 cm, 22-gauge needle was inserted into a calf liver that was placed in a transmit/receive birdcage coil. […] The offset frequency of the chemical saturation pulse was set at 170 Hz. […] A complete 3D data set was acquired every 15 seconds. Scanning parameters were: 20 degree flip angle, TE=4.2 msec, TR=34 msec, matrix=256×128×4, 1 signal average, and 32 kHz receiver bandwidth. A total of 15 temporal phases was acquired, each with approximately 15 second time resolution.
The time after injection appears in seconds in the lower left corner of each frame.

[7] = tested on: hepatocellular carcinoma less than about 3 cm; conditions: randomized, controlled trial, patients with hepatocellular carcinoma less than about 3 cm; cited from earlier work
[8] = tested on: multifocal hepatoma; conditions: Patient 3, post-injection, signal low in intensity
[9] = tested on: hepatic tumor; assay: Paper example: CS-MRI guided chemical ablation of a hepatic tumor; conditions: for outcome of chemical ablation therapy: hepatic tumor, slow injection under CS-MRI
Description: as §1
(§2) A patient presents for ethanol ablation therapy of a hepatic tumor. The patient is prepared by placement on the MRI scanner platform and the spectrometer is calibrated for ^13C-labeled ethanol using standard T1 and T2-weighted imaging. An MR-compatible needle is advanced into the lesions to introduce the ablation agent. Dynamic two-dimensional, chemical shift MRI is performed during the slow injection of ^13C-labeled ethanol. The distribution of ^13C-labeled ethanol is then directly visualized using chemical shift MRI.
as §2, with “hot saline” for “ethanol”, “^23Na-labeled saline” for “^13C-labeled ethanol”, “^23Na-labeled saline.” for “^13C-labeled ethanol.”

CC(=O)O [acetic acid]
outcome of chemical ablation therapy [1]: successful in destroying the tumor | outcome of chemical ablation therapy [2]: successful in destroying the tumor | outcome of chemical ablation therapy [3]: successful in destroying the tumor | outcome of chemical ablation therapy [4]: successful in destroying the tumor | size of the lesion versus distribution of the agent ([5]; Patient 2): closely matches | extra-hepatic extravasation of the agent ([5]; in vivo): No extra-hepatic extravasation of the agent is observed | distribution of the agent at the injection site on CS-MRI [6]: focal accumulation of acetic acid adjacent to the needle tip | effectiveness of ablation compared with ethanol ablation [7]: more effective than ethanol ablation

CCO [ethanol]
distribution of the agent on CS-MRI [8]: focal signal accumulation due to ethanol injection is observed

^13C-labeled acetic acid
outcome of chemical ablation therapy [9]: successful in destroying the tumor

^13C-labeled ethanol
outcome of chemical ablation therapy [9]: successful in destroying the tumor | damage to surrounding tissues ([9]; in vivo): without damage to surrounding tissues
